According to US20090215851A1, “Method of Preparing a Porphyrin Derivative, a Porphyrin Derivative, Use of Said Porphyrin derivative and a pharmaceutical composition containing said porphyrin derivative” (PHOTOBIOCHEM N.V., priority 2005, published 2009):
One block for each compound: values may come before it.

Assays:
[1] = system: A 549 lung carcinoma cells; experiment: Dark toxicity test, MTT assay; assay type: cell-based; conditions: overnight in the dark at 37° C; concentrations up to 30 μg/ml
Protocol: First a toxicity test of compound 5 in cultures of A 549 lung carcinoma cells (American Type Culture Collection) was carried out in the dark. The cells were incubated in a medium containing compound 5 at various concentrations. The cultures were left overnight in the dark at 37° C. Using the MTT (3-(4,5-dimethylthiazol-2-yl)-2,5-diphenyltetrazolium bromide) assay based on the methods of Tada et al (J. Immunol. Meth., 1986, 93, pp. 157-165) and J. Carmichael et al (Cancer Res., 1987, 47, pp. 936-942.) the cell survival was obtained as a percentage of untreated cells of control (FIG. 2). Even at concentrations up to 30 μg/ml in the medium cell survival was complete (within the experimental error), showing that compound 5 is essentially not toxic towards the lung carcinoma cells in the dark.

[2] = Photochemical singlet oxygen generation (emission at 1270 nm after laser excitation in toluene); assay type: physicochemical; conditions: laser excitation 532 nm, singlet oxygen generating conditions
Protocol: Compound B dissolved in toluene was excited with a 9 mJ, 15 ns laser pulse at 532 nm from a home-built Q-switched frequency doubled Nd:YAG laser operating at 10 Hz. Emission from singlet oxygen at 1270 nm was detected at 90° to the quartz cuvette by an InGaAs photodiode, amplified and then signal-averaged (256 shots) on a digital oscilloscope (HP infinium). A 1260 nm interference filter (FWHM=75 nm) was used to protect the detector from laser light and sensitizer fluorescence. Typical decay times were 28±1 μs, which is characteristic for singlet oxygen decay in toluene (M. Okamoto et al, J. Phys. Chem., 1993, 97, pp. 177-180.) Tetraphenylporphyrin was used as a standard to determine the relative singlet oxygen yield (ΦΔ) (F. Wilkinson, et al, J. Phys. Chem. Ref. Data., 1993, 22, pp. 113-2162.). The relative quantum yield for compound 5 in air saturated toluene was 0.72. […] This stability of the compound according to the invention as exemplified by compound 5 towards singlet oxygen is surprising. In many porphyrins with appending double bonds the double bond reacts chemically with the singlet oxygen generated by the system. […]

[3] = system: A 549 lung carcinoma cells; experiment: Photodynamic cytotoxicity after illumination with white halogen light, MTT assay; assay type: cell-based; conditions: 0.10 μg/ml
[4] = system: subcutaneous mammary CaNT tumors; experiment: Mouse tumor model, PDT; assay type: in vivo; conditions: for persistence of phototoxic effect with time after injection (FIG. 9): different intervals between injection and illumination
Protocol: Experiments were performed to investigate the suitability of compound 7 for the photodynamic therapy (PDT) treatment of tumors, in particular subcutaneous mammary CaNT tumors. These experiments were performed by Photopharmica Ltd. under the guidance of Professor Stan Brown in the Centre for Photobiology and Photodynamic Therapy (Leeds, UK). Different doses of compound 7 (dissolved in Water:PEG-400:1-Methyl-2-pyrrolidone (50:30:20 v/v), with a maximum concentration of 0.5 mg/ml at pH 8.1) were intravenously injected and tumors were illuminated with red light (685±15 nm, 60 J/cm^2, 50 mW/cm^2) at different intervals after injection.

CAM blood vessels = experiment: AMD model: CAM (chorioallantoic membrane) model in fertilized chicken eggs, PDT; assay type: in vivo
Protocol: Age-related Macula Degeneration (AMD) is an eye affliction that eventually leads to blindness. For studies to treat this affliction, an AMD model exists, the so-called CAM (chorioallantoic membrane) model in fertilized chicken eggs. The blood vessels in this chorioallantoic membrane mimic a number of relevant features characteristic for the blood vessels in the eye involved in causing AMD. Experiments with compound 7 were performed at the department of Professor Hubert van den Bergh of the EPFL in Lausanne. Different doses of compound 7 (dissolved in Water:PEG-400:1-Methyl-2-pyrrolidone (50:30:20 v/v), pH 8.1) were injected in the CAM blood vessels and the vessels were illuminated after an 1 minute time-to-treat interval using different amounts of light energy from a far red light source. In the experiments, Visudyne™ (which has an absorption peak at 690 nm), the only photosensitizer approved for clinical use in AMD, was used as the control.
Compound 7 was as potent (already with a low light dose of 24 J/cm^2 and 1 mg/kg of body weight of photosensitizer 7 the desired grade 3 vessel damage could be obtained) as Visudyne™ in closing blood vessels in this model. […] (Legend: A: Compound 7 fluorescence angiography before PDT; B: compound 7 fluorescence angiography during PDT, shown in the circle is the red light irradiation area; C: sulforhodamine 101 fluorescence angiography 18 hours post-treatment).

photo degradation as measured by changes in the absorption spectrum [2]: No photo degradation
Compound: 2′-cyano-8′-formyl-N-methyl-1,1a,5a,6-tetrahydroacrido-[4,5,5a,6-bcd]-annulated 2,3-dihydromesoporphyrin dimethylester [compound 5]
cell survival as a percentage of untreated cells (dark toxicity) [1]: complete
lung carcinoma cells killed ([3]; 4 hours incubation in the dark, then white halogen light 30 mW/cm^2 (270 kJ/m^2)): 70%
photodynamic cytotoxicity compared with mTHPC (Foscan®) ([3]; 4 hours incubation, white halogen light 30 mW/cm^2 (270 kJ/m^2), FIG. 3): comparable

skin photosensitivity ([4]; at the effective tumor dose, within 24 hours after drug administration): lacking skin photosensitivity
leakage from the CAM blood vessels compared with Visudyne™ (CAM blood vessels; fluorescence microscopy): much less leakage
Compound: 2′-cyano-8′-formyl-N′-methyl-1′,1a′,5a′,6′-tetrahydroacrido[4,5,5a,6-bcd]-annulated 2,3-dihydromesoporphyrin dicarboxylic acid [compound 7]
damage to internal tissue surrounding the tumor ([4]; after light treatment): comparable to Photofrin™
damage to the skin overlaying the tumor, in contrast to Photofrin™ ([4]; after light treatment): less damage
persistence of phototoxic effect with time after injection (FIG. 9) [4]: vanishes rapidly in a couple of hours
PDT effect, light 2 minutes after injection ([4]; drug-to-light interval 2 minutes): already present immediately
PDT effect, light 180 minutes after injection ([4]; drug-to-light interval 180 minutes): virtually absent
dose with good tumor killing potential in vivo ([4]; intravenous, red light 685±15 nm, 60 J/cm^2, 50 mW/cm^2): around 2.5 mg/kg
effect on tumor-necrosis and skin damage, light a couple of hours after injection ([4]; treatment with light a couple of hours after injection): no effect
effect of PDT on small CAM blood vessels (FIG. 7) (CAM blood vessels; 12 J/cm^2 at 1 mg/kg body weight, angiography 18 hours post-treatment): closing of the small CAM blood vessels
potency in closing blood vessels compared with Visudyne™ (CAM blood vessels; CAM model, far red light): as potent
vessel damage grade (CAM blood vessels; light dose 24 J/cm^2, 1 mg/kg of body weight, 1 minute time-to-treat interval): 3 grade

Compound: Oc1cccc(-c2c3nc(c(-c4cccc(O)c4)c4ccc([nH]4)c(-c4cccc(O)c4)c4nc(c(-c5cccc(O)c5)c5ccc2[nH]5)CC4)C=C3)c1 [Foscan, mTHPC, reference compound]
potency relative to compound 7 ([4]; mouse tumor model, estimated): more potent than compound 7

Compound: Photofrin™ [reference compound]
dose needed for the same percentage of necrotic area (FIG. 8), compared with compound 7 ([4]; % necrotic area versus dose): requires a higher dose for the same effect
persistence of phototoxic effect with time after injection (FIG. 9) [4]: remains phototoxic after several hours
potency relative to compound 7 (fold) ([4]; mouse tumor model, estimated): 2.5 times less potent than compound 7
